Laboratory results reported in patent publication US20090118332A1, “Therapeutic Agents - 551” (AstraZeneca AB, priority 2006, published 2009).

Target: T1, human Fatty Acid Synthase (Homo sapiens, UniProt P49327)
T1 construct: made in house
Assay: Human FAS enzyme assay (decrease in NADPH fluorescence)
Type: biochemical
Details: % inhibition at a concentration of 100 μmolar
Experimental: Human and Rat FAS Enzyme Assay.
Fatty acid synthase is an enzyme complex that harbours seven enzymatic activities catalysing the reductive synthesis of long chain fatty acids from acetyl CoA and malonyl CoA to palmitate. When acetyl CoA and malonyl CoA are forming palmitate NADPH is consumed forming NADP. Since NADPH is fluorescent but not NADP the reaction can be measured by analysing the decrease in fluorescence.
Compounds were added to a black 384 well plate (Matrix) in a volume of 5 μl consisting of 20% DMSO and 80% Tris buffer pH 7.5, at a top concentration of 1 mM. NADPH, 30 μl of 166.6 μM, formulated in assay buffer (0.1M Tris ph7.5, 0.1 mM EDTA, 1 mM glutathione, 0.05% BSA), was then added to all of the wells of the plate. Fatty acid synthase Human or rat enzyme (0.4 μg, produced in house), dissolved in 20 mM Tris/HCl pH 7.5, 5 mM BOG, 1 mM TCEP, 10% glycerol, 1 mM EDTA, 150 mM NaCl, was then added to the plate in a volume of 10 μl. Enzyme was added to all but the last two columns of the plate, to which, 10 μl of assay buffer was added (0.1M Tris ph7.5, 0.1 mM EDTA, 1 mM glutathione, 0.05% BSA) to provide a no enzyme assay control. Following a 15-minute incubation period, at room temperature, the plates were read on an Envision plate reader using 340 nm excitation and 460 nm emission filters. This served as a time zero background read. Substrates (an equal mix of both malonyl and acetyl CoA) were then added to the plates in a total volume of 5 μl. The concentrations of malonyl and acetyl CoA in the mixture were 500 μM and 150 μM respectively. Both were prepared as 10 mM stock solutions in distilled water and were subsequently diluted to working concentrations in assay buffer. Plates were then incubated for a further 60 minutes, at room temperature, before being read again on the Envision reader using the same parameters as previously used. The data was analysed by subtracting the background time zero data from that generated following the final 60 minute incubate and the percent inhibition compared to the maximum and minimum assay controls was determined. Sigmoid curves were fitted using Origin 7.5 Client software and IC50 values were determined.

T1 sequence (P49327 whole entry): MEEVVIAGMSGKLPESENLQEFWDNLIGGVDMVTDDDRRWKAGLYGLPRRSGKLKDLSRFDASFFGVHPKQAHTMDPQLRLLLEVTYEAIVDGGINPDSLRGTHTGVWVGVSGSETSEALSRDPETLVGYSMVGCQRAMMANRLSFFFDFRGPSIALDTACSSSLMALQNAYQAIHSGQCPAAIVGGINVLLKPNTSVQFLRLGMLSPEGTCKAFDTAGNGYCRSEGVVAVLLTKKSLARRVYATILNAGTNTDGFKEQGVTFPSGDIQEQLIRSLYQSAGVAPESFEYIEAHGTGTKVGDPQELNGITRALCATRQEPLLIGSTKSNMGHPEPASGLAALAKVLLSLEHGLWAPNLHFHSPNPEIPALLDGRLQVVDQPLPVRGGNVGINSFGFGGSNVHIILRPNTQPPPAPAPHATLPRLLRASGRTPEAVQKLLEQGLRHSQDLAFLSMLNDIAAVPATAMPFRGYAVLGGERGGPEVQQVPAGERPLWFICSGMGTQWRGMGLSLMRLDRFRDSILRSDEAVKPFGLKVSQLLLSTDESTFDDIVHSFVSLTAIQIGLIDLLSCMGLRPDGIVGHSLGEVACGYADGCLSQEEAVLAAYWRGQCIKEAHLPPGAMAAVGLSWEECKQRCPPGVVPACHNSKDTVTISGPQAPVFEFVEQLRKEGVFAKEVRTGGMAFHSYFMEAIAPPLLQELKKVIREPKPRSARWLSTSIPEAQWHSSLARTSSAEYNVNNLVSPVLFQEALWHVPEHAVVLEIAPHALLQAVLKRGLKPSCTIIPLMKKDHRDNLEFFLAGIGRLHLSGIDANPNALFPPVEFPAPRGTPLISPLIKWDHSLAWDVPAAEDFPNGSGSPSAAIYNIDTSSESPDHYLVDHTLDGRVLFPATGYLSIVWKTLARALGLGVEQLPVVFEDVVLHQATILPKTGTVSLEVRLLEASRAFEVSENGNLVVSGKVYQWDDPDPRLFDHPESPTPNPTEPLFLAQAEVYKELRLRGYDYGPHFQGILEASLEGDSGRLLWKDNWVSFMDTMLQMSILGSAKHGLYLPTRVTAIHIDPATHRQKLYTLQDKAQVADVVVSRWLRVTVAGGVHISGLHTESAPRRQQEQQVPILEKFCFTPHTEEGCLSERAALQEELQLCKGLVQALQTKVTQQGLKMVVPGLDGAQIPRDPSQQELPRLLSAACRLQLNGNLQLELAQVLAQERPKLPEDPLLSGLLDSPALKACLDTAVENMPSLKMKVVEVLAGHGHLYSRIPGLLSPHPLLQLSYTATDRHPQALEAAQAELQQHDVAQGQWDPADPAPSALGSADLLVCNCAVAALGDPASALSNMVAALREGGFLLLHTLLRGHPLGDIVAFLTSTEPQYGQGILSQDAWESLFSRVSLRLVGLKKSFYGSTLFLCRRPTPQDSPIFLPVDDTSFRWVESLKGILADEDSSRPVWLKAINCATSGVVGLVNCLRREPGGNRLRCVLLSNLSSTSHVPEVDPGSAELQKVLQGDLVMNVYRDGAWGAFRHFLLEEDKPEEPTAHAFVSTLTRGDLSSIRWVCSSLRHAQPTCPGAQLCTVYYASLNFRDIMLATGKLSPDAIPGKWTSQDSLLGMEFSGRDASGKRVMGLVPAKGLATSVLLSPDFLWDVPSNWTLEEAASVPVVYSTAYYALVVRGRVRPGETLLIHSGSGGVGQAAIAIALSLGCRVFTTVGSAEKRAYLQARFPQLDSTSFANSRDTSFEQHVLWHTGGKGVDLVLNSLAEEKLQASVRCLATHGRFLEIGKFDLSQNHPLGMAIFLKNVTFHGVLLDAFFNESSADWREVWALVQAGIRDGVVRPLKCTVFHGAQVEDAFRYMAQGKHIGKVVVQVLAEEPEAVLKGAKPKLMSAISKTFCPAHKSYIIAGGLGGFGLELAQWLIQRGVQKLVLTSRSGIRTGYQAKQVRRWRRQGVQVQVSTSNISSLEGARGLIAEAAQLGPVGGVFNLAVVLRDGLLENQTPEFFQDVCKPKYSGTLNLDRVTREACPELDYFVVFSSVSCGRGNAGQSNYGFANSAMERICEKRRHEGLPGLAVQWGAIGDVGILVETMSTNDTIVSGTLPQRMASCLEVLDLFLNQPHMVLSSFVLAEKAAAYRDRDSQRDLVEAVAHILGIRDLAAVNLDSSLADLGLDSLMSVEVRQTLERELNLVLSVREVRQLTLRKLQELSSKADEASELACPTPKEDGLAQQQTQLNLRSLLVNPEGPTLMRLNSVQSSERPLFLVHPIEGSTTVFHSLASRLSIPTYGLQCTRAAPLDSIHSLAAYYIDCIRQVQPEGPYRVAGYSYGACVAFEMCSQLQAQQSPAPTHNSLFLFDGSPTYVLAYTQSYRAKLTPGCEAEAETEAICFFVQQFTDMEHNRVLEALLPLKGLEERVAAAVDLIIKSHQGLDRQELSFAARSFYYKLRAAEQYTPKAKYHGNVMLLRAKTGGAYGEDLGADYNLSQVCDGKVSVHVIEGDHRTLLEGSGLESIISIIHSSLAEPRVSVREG

**Q.** How did the inhibition at 100 µM turn out when `Cc1ccc(C(=O)N2CCC(c3ccc(C#N)cc3)CC2)cc1NC(=O)NC(C)C` [Example 3, 3-[5-[4-(4-cyanophenyl)piperidine-1-carbonyl]-2-methyl-phenyl]-1-propan-2-yl-urea] was run?
**A.** Its inhibition at 100 µM is 95.6%.

**Q.** With `CC(C)NC(=O)Nc1cc(C(=O)N2CCC(c3ccc(C#N)cc3)CC2)ccc1OC(F)(F)F` [Example 4, 3-[5-[4-(4-cyanophenyl)piperidine-1-carbonyl]-2-(trifluoromethoxy)phenyl]-1-propan-2-yl-urea] as the compound, how does the inhibition at 100 µM read?
**A.** The inhibition at 100 µM was 86.1%.

**Q.** For `N#Cc1ccc(C2CCN(C(=O)c3ccc(OC(F)(F)F)c(NC(=O)NCc4ccccc4)c3)CC2)cc1` [Example 5, 3-benzyl-1-[5-[4-(4-cyanophenyl)piperidine-1-carbonyl]-2-(trifluoromethoxy)phenyl]urea], which inhibition at 100 µM is on record?
**A.** The inhibition at 100 µM was 78.8%.

**Q.** For `COc1ccc(C(=O)N2CCC(c3ccc(C#N)cc3)CC2)cc1NC(=O)NC(C)C` [Example 6, 1-[5-[4-(4-cyanophenyl)piperidine-1-carbonyl]-2-methoxy-phenyl]-3-propan-2-yl-urea], which inhibition at 100 µM is on record?
**A.** The inhibition at 100 µM was 79.6%.

**Q.** How did the inhibition at 100 µM turn out when `Cc1ccc(NC(=O)NCc2ccccc2)cc1C(=O)N1CCC(c2ccc(C#N)cc2)CC1` [Example 7, 3-benzyl-1-[3-[4-(4-cyanophenyl)piperidine-1-carbonyl]-4-methyl-phenyl]urea] was run?
**A.** Its inhibition at 100 µM is 79.1%.

**Q.** For `N#Cc1ccc(C2CCN(C(=O)c3ccc(F)c(NC(=O)NCc4ccccc4)c3)CC2)cc1` [Example 8, 3-benzyl-1-[5-[4-(4-cyanophenyl)piperidine-1-carbonyl]-2-fluoro-phenyl]urea], which inhibition at 100 µM is on record?
**A.** The inhibition at 100 µM was 82.6%.

**Q.** How did the inhibition at 100 µM turn out when `COc1ccc(C(=O)N2CCC(c3ccc(C#N)cc3)CC2)cc1NC(=O)NCc1ccccc1` [Example 9, 3-benzyl-1-[5-[4-(4-cyanophenyl)piperidine-1-carbonyl]-2-methoxy-phenyl]urea] was run?
**A.** The inhibition at 100 µM was 70.4%.

**Q.** With `Cc1ccc(C(=O)N2CCC(c3ccc(C#N)cc3)CC2)cc1NC(=O)N1CCCC1` [Example 10, N-[5-[4-(4-cyanophenyl)piperidine-1-carbonyl]-2-methyl-phenyl]pyrrolidine-1-carboxamide] as the compound, how does the inhibition at 100 µM read?
**A.** The inhibition at 100 µM was 83.5%.

**Q.** `CC(C)NC(=O)Nc1cc(C(=O)N2CCC(c3ccc(C#N)cc3)CC2)ccc1F` [Example 11, 3-[5-[4-(4-cyanophenyl)piperidine-1-carbonyl]-2-fluoro-phenyl]-1-propan-2-yl-urea] was tested. Which inhibition at 100 µM did it give?
**A.** Its inhibition at 100 µM is 68.4%.

**Q.** How did the inhibition at 100 µM turn out when `Cc1cc(C)c(C(=O)N2CCC(c3ccc(C#N)cc3)CC2)cc1NC(=O)NCc1ccccc1` [Example 12, 3-benzyl-1-[5-[4-(4-cyanophenyl)piperidine-1-carbonyl]-2,4-dimethyl-phenyl]urea] was run?
**A.** Its inhibition at 100 µM is 84.6%.

**Q.** How did the inhibition at 100 µM turn out when `Cc1cc(C)c(C(=O)N2CCC(c3ccc(C#N)cc3)CC2)cc1NC(=O)NC(C)C` [Example 13, 3-[5-[4-(4-cyanophenyl)piperidine-1-carbonyl]-2,4-dimethyl-phenyl]-1-propan-2-yl-urea] was run?
**A.** The inhibition at 100 µM was 84.8%.

**Q.** With `N#Cc1ccc(C2CCN(C(=O)c3cccc(NC(=O)NCc4ccccc4)c3)CC2)cc1` [Example 14, 1-benzyl-3-[3-[4-(4-cyanophenyl)piperidine-1-carbonyl]phenyl]urea] as the compound, how does the inhibition at 100 µM read?
**A.** The inhibition at 100 µM was 90.1%.

**Q.** How did the inhibition at 100 µM turn out when `Cc1ccc(C(=O)N2CCC(c3ccc(C#N)cc3)CC2)cc1NC(=O)NC1CCCC1` [Example 15, 1-[5-[4-(4-cyanophenyl)piperidine-1-carbonyl]-2-methyl-phenyl]-3-cyclopentyl-urea] was run?
**A.** Its inhibition at 100 µM is 91.3%.

**Q.** For `Cc1ccc(C(=O)N2CCC(c3ccc(C#N)cc3)CC2)cc1NC(=O)NCCc1ccccc1` [Example 16, 1-[5-[4-(4-cyanophenyl)piperidine-1-carbonyl]-2-methyl-phenyl]-3-phenethyl-urea], which inhibition at 100 µM is on record?
**A.** Its inhibition at 100 µM is 98.3%.

**Q.** `Cc1ccc(C(=O)N2CCC(c3ccc(C#N)cc3)CC2)cc1NC(=O)NCC1CCOCC1` [Example 17, 1-[5-[4-(4-cyanophenyl)piperidine-1-carbonyl]-2-methyl-phenyl]-3-(oxan-4-ylmethyl)urea] was tested. Which inhibition at 100 µM did it give?
**A.** The inhibition at 100 µM was 90.1%.

**Q.** How did the inhibition at 100 µM turn out when `CNC(=O)Nc1ccc(C)c(C(=O)N2CCC(c3ccc(C#N)cc3)CC2)c1` [Example 18, 3-[3-[4-(4-cyanophenyl)piperidine-1-carbonyl]-4-methyl-phenyl]-1-methyl-urea] was run?
**A.** The inhibition at 100 µM was 75.9%.

**Q.** With `CCNC(=O)Nc1ccc(C)c(C(=O)N2CCC(c3ccc(C#N)cc3)CC2)c1` [Example 19, 3-[3-[4-(4-cyanophenyl)piperidine-1-carbonyl]-4-methyl-phenyl]-1-ethyl-urea] as the compound, how does the inhibition at 100 µM read?
**A.** The inhibition at 100 µM was 79.9%.

**Q.** How did the inhibition at 100 µM turn out when `CCCCNC(=O)Nc1ccc(C)c(C(=O)N2CCC(c3ccc(C#N)cc3)CC2)c1` [Example 20, 1-butyl-3-[3-[4-(4-cyanophenyl)piperidine-1-carbonyl]-4-methyl-phenyl]urea] was run?
**A.** The inhibition at 100 µM was 79.2%.

**Q.** With `Cc1ccc(NC(=O)NC2CCCC2)cc1C(=O)N1CCC(c2ccc(C#N)cc2)CC1` [Example 21, 1-[3-[4-(4-cyanophenyl)piperidine-1-carbonyl]-4-methyl-phenyl]-3-cyclopentyl-urea] as the compound, how does the inhibition at 100 µM read?
**A.** The inhibition at 100 µM was 78.8%.

**Q.** How did the inhibition at 100 µM turn out when `CC(C)NC(=O)Nc1cc(C(=O)N2CCC(c3ccc(C#N)cc3)CC2)ccc1C#N` [Example 22, 3-[2-cyano-5-[4-(4-cyanophenyl)piperidine-1-carbonyl]phenyl]-1-propan-2-yl-urea] was run?
**A.** Its inhibition at 100 µM is 86.8%.

**Q.** How did the inhibition at 100 µM turn out when `Cc1ccc(NC(=O)NCc2ccccc2F)cc1C(=O)N1CCC(c2ccc(C#N)cc2)CC1` [Example 23, 1-[3-[4-(4-cyanophenyl)piperidine-1-carbonyl]-4-methyl-phenyl]-3-[(2-fluorophenyl)methyl]urea] was run?
**A.** The inhibition at 100 µM was 77%.

**Q.** Which inhibition at 100 µM does the source give for `Cc1ccc(NC(=O)N(C)Cc2ccccc2)cc1C(=O)N1CCC(c2ccc(C#N)cc2)CC1` [Example 24, 1-benzyl-3-[3-[4-(4-cyanophenyl)piperidine-1-carbonyl]-4-methyl-phenyl]-1-methyl-urea] here?
**A.** Its inhibition at 100 µM is 78.1%.

**Q.** For `Cc1ccc(NC(=O)NCc2cccnc2)cc1C(=O)N1CCC(c2ccc(C#N)cc2)CC1` [Example 25, 1-[3-[4-(4-cyanophenyl)piperidine-1-carbonyl]-4-methyl-phenyl]-3-(pyridin-3-ylmethyl)urea], which inhibition at 100 µM is on record?
**A.** The inhibition at 100 µM was 79.7%.

**Q.** `Cc1ccc(NC(=O)NCCc2ccccc2)cc1C(=O)N1CCC(c2ccc(C#N)cc2)CC1` [Example 26, 1-[3-[4-(4-cyanophenyl)piperidine-1-carbonyl]-4-methyl-phenyl]-3-phenethyl-urea] was tested. Which inhibition at 100 µM did it give?
**A.** Its inhibition at 100 µM is 82.9%.

**Q.** Which inhibition at 100 µM does the source give for `Cc1ccc(NC(=O)NCC2CCOCC2)cc1C(=O)N1CCC(c2ccc(C#N)cc2)CC1` [Example 27, 1-[3-[4-(4-cyanophenyl)piperidine-1-carbonyl]-4-methyl-phenyl]-3-(oxan-4-ylmethyl)urea] here?
**A.** The inhibition at 100 µM was 80.7%.

**Q.** `Cc1ccc(NC(=O)N2CCOCC2)cc1C(=O)N1CCC(c2ccc(C#N)cc2)CC1` [Example 28, N-[3-[4-(4-cyanophenyl)piperidine-1-carbonyl]-4-methyl-phenyl]morpholine-4-carboxamide] was tested. Which inhibition at 100 µM did it give?
**A.** Its inhibition at 100 µM is 83.1%.

**Q.** For `Cc1ccc(NC(=O)N2CCCC2)cc1C(=O)N1CCC(c2ccc(C#N)cc2)CC1` [Example 29, N-[3-[4-(4-cyanophenyl)piperidine-1-carbonyl]-4-methyl-phenyl]pyrrolidine-1-carboxamide], which inhibition at 100 µM is on record?
**A.** The inhibition at 100 µM was 79.6%.

**Q.** `Cc1ccc(C(=O)N2CCC(c3ccc(C#N)cc3)CC2)cc1NC(=O)NC(C)(C)C` [Example 31, 1-[5-[4-(4-cyanophenyl)piperidine-1-carbonyl]-2-methyl-phenyl]-3-tert-butyl-urea] was tested. Which inhibition at 100 µM did it give?
**A.** Its inhibition at 100 µM is 83.3%.

**Q.** `Cc1ccc(C(=O)N2CCC(c3ccc(C#N)cc3)CC2)cc1NC(=O)NCc1ccccc1` [Example 32, 3-benzyl-1-[5-[4-(4-cyanophenyl)piperidine-1-carbonyl]-2-methyl-phenyl]urea] was tested. Which inhibition at 100 µM did it give?
**A.** Its inhibition at 100 µM is 95.5%.

**Q.** `Cc1ccc(C(=O)N2CCC(c3ccc(C#N)cc3)CC2)cc1NC(=O)NCc1ccc(C#N)cc1` [Example 33, 3-[(4-cyanophenyl)methyl]-1-[5-[4-(4-cyanophenyl)piperidine-1-carbonyl]-2-methyl-phenyl]urea] was tested. Which inhibition at 100 µM did it give?
**A.** The inhibition at 100 µM was 91.8%.

**Q.** With `Cc1ccc(C(=O)N2CCC(c3ccc(C#N)cc3)CC2)cc1NC(=O)NCc1ccccc1F` [Example 34, 1-[5-[4-(4-cyanophenyl)piperidine-1-carbonyl]-2-methyl-phenyl]-3-[(2-fluorophenyl)methyl]urea] as the compound, how does the inhibition at 100 µM read?
**A.** The inhibition at 100 µM was 86.5%.

**Q.** How did the inhibition at 100 µM turn out when `Cc1ccc(C(=O)N2CCC(c3ccc(C#N)cc3)CC2)cc1NC(=O)NCc1cccnc1` [Example 35, 1-[5-[4-(4-cyanophenyl)piperidine-1-carbonyl]-2-methyl-phenyl]-3-(pyridin-3-ylmethyl)urea] was run?
**A.** The inhibition at 100 µM was 91.6%.

**Q.** `Cc1ccc(C(=O)N2CCC(c3ccc(C#N)cc3)CC2)cc1NC(=O)NCc1ccncc1` [Example 36, 1-[5-[4-(4-cyanophenyl)piperidine-1-carbonyl]-2-methyl-phenyl]-3-(pyridin-4-ylmethyl)urea] was tested. Which inhibition at 100 µM did it give?
**A.** Its inhibition at 100 µM is 93.8%.
